Laboratory results published in patent publication US12441727B2, “Tricyclic compounds as inhibitors of KRAS” (Incyte Corporation, priority 2021, dated 2025).
Read-outs that look alike come from different tables or passages of the source.

Key:
[1] = Human whole blood stability; type: in vitro ADME; settings: percent remaining at 4 hr, 1 μM, 37° C.
Description: The whole blood stability of the exemplified compounds was determined by LC-MS/MS. The 96-Well Flexi-Tier™ Block (Analytical Sales & Services, Inc, Flanders, NJ) is used for the incubation plate containing 1.0 mL glass vials with 0.5 mL of blood per vial (pooled gender, human whole blood sourced from BIOIVT, Hicksville, NY or similar). Blood is pre-warmed in water bath to 37° C. for 30 minutes. 96-deep well analysis plate is prepared with the addition of 100 μL ultrapure water/well. 50 μL chilled ultrapure water/well is added to 96-deep well sample collection plate and covered with a sealing mat. 1 μL of 0.5 mM compound working solution (DMSO:water) is added to the blood in incubation plate to reach final concentrations of 1 μM, mixed by pipetting thoroughly and 50 μL is transferred 50 into the T=0 wells of the sample collection plate. Blood is allowed to sit in the water for 2 minutes and then 400 μL stop solution/well is added (acetonitrile containing an internal standard). The incubation plate is placed in the Incu-Shaker CO2 Mini incubator (Benchmark Scientific, Sayreville, NJ) at 37° C. with shaking at 150 rpm. At 1, 2 and 4-hr, the blood samples are mixed thoroughly by pipetting and 50 μL is transferred into the corresponding wells of the sample collection plate. Blood is allowed to sit in the water for 2 minutes and then 400 μL of stop solution/well is added. The collection plate is sealed and vortexed at 1700 rpm for 3 minutes (VX-2500 Multi-Tube Vortexer, VWR International, Radnor, PA), and samples are then centrifuged in the collection plate at 3500 rpm for 10 minutes (Allegra X-14R Centrifuge Beckman Coulter, Indianapolis, IN). 100 μL of supernatant/well is transferred from the sample collection plate into the corresponding wells of the analysis plate. The final plate is vortexed at 1700 rpm for 1 minute and analyze samples by LC-MS/MS. The peak area ratio of the 1, 2, and 4 hr samples relative to T=0 is used to determine the percent remaining. The natural log of the percent remaining versus time is used determine a slope to calculate the compounds half-life in blood (t1/2=0.693/slope).

KRAS_G12C pERK = assay: Cellular pERK HTRF assay (KRAS_G12C pERK assay); type: cell-based, human; settings: KRAS G12C cells, 4 hours incubation with compound, read-out: G12C_pERK
Description: MIA PaCa-2 (KRAS G12C; ATCC® CRL-1420), NCI-H358 (KRAS G12C; ATCC® CRL-5807), A427 (KRAS G12D; ATCC® HTB53), HPAFII (KRAS G12D; ATCC® CRL-1997), YAPC (KRAS G12V; DSMZ ACC382), SW480 (KRAS G12V; ATCC® CRL-228) and NCI-H838 (KRAS WT; ATCC® CRL-5844) cells are purchased from ATCC and maintained in RPMI 1640 media supplemented with 10% FBS (Gibco/Life Technologies). The cells are plated at 5000 cells per well (8 uL) into Greiner 384-well low volume, flat-bottom, and tissue culture treated white plates and incubated overnight at […], 5% CO2. The next morning, test compound stock solutions are diluted in media at 3× the final concentration and 4 uL are added to the cells, with a final concentration of 0.1% of DMSO. The cells are incubated with the test compounds for 4 hours (G12C and G12V) or 2 hrs (G12D) at 37° C., 5% CO2. Four uL of 4× lysis buffer with blocking reagent (Cisbio) are added to each well and plates are rotated gently (300 rpm) for 30 minutes at room temperature. Four uL per well of Cisbio anti Phospho-ERK 1/2 d2 is mixed with anti Phospho-ERK 1/2 Cryptate (1:1), and added to each well, incubated overnight in the dark at room temperature. Plates are read on the Pherastar plate reader at 665 nm and 620 nm wavelengths. Data are analyzed in Genedata Screener using SmartFit for IC50 values.

[2] = tested on: KRAS_G12C pERK in MIA PaCa-2 cells; assay: Whole Blood pERK1/2 HTRF assay (KRAS_G12C WB pERK assay); type: cell-based, human; settings: compound in whole blood, 4 hours, read-out: G12C_WB_pERK
Description: MIA PaCa-2 cells (KRAS G12C; ATCC® CRL-1420), HPAF-II (KRAS G12D; ATCC® CRL-1997) and YAPC (KRAS G12V; DSMZ ACC382) are maintained in RPMI 1640 with 10% FBS (Gibco/Life Technologies). For MIA PaCa-2 assay, cells are seeded into 96 well tissue culture plates (Corning #3596) at 25000 cells per well in 100 uL media and cultured for 2 days at 37° C., 5% CO2 before the assay. For HPAF-II and YAPC assay, cells are seeded in 96 well tissue culture plates at 50000 cells per well in 100 uL media and cultured for 1 day before the assay. Whole Blood are added to the 1 uL dots of compounds (prepared in DMSO) in 96 well plates and mixed gently by pipetting up and down so that the concentration of the compound in blood is 1× of desired concentration, in 0.5% DMSO. The media is aspirated from the cells and 50 uL per well of whole blood with test compound is added and incubated for 4 hours for MIA PaCa and YAPC assay; or 2 hours for HPAF-II assay, respectively at 37° C., 5% CO2. After dumping the blood, the plates are gently washed twice by adding PBS to the side of the wells and dumping the PBS from the plate onto a paper towel, tapping the plate to drain well. Fifty ul/well of 1× lysis buffer #1 (Cisbio) with blocking reagent (Cisbio) and Benzonase nuclease (Sigma Cat #E1014-5KU, 1:10000 final concentration) is then added and incubated at room temperature for 30 minutes with shaking (250 rpm). Following lysis, 16 uL of lysate is transferred into 384-well Greiner small volume white plate using an Assist Plus (Integra Biosciences, NH). Four uL of 1:1 mixture of anti Phospho-ERK 1/2 d2 and anti Phospho-ERK 1/2 Cryptate (Cisbio) is added to the wells using the Assist Plus and incubated at room temperature overnight in the dark. Plates are read on the Pherastar plate reader at 665 nm and 620 nm wavelengths. Data are analyzed in Genedata Screener using SmartFit for IC50 values.

KRAS G12C = KRAS G12C (Homo sapiens, UniProt P01116, G12C); assay: GDP-GTP exchange assay (KRAS_G12C exchange assay); type: biochemical; settings: bodipy-loaded KRAS G12C 2.5 nM, SOS1 150 nM, 2 hours pre-incubation with inhibitor; read-out: G12C_exchange
Description: The inhibitor potency of the exemplified compounds was determined in a fluorescence based guanine nucleotide exchange assay, which measures the exchange of bodipy-GDP (fluorescently labeled GDP) for GppNHp (Non-hydrolyzable GTP analog) to generate the active state of KRAS in the presence of SOS1 (guanine nucleotide exchange factor). Inhibitors were serially diluted in DMSO and a volume of 0.1 μL was transferred to the wells of a black low volume 384-well plate. 5 μL/well volume of bodipy-loaded KRAS G12C diluted to 5 nM in assay buffer (25 mM Hepes pH 7.5, 50 mM NaCl, 10 mM MgCl2 and 0.01% Brij-35) was added to the plate and pre-incubated with inhibitor for 2 hours at ambient temperature. Appropriate controls (enzyme with no inhibitor or with a G12C inhibitor (AMG-510)) were included on the plate. The exchange was initiated by the addition of a 5 μL/well volume containing 1 mM GppNHp and 300 nM SOS1 in assay buffer. The 10 μL/well reaction concentration of the bodipy-loaded KRAS G12C, GppNHp, and SOS1 were 2.5 nM, 500 uM, and 150 nM, respectively. The reaction plates were incubated at ambient temperature for 2 hours, a time estimated for complete GDP-GTP exchange in the absence of inhibitor. For the KRAS G12D and G12V mutants, similar guanine nucleotide exchange assays were used with 2.5 nM as final concentration for the bodipy loaded KRAS proteins and with 4 hours and 3 hours incubation after adding GppNHp-SOS1 mixture for G12D and G12V respectively. A cyclic peptide described to selectively bind G12D mutant (Sakamoto et al., BBRC 484.3 (2017), 605-611) or internal compounds with confirmed binding were used as positive controls in the assay plates. Fluorescence intensities were measured on a PheraStar plate reader instrument (BMG Labtech) with excitation at 485 nm and emission at 520 nm.
Either GraphPad prism or Genedata Screener SmartFit was used to analyze the data. The IC50 values were derived by fitting the data to a four parameter logistic equation producing a sigmoidal dose-response curve with a variable Hill coefficient.

Sequence of KRAS G12C (P01116 1-188 isoform P01116-2 G12C): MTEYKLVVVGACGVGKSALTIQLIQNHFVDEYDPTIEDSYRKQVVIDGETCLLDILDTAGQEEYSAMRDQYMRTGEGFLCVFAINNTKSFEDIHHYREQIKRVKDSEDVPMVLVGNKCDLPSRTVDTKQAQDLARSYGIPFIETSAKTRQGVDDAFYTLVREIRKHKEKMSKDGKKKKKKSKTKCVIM

Row | SMILES | Human whole blood stability at 4 hr [1] | IC50 (KRAS_G12C pERK; Homo sapiens, 4 h) | IC50 ([2]; Homo sapiens) | IC50 (KRAS G12C) | IC50 (KRAS_G12C pERK) | IC50 [2]
1 | C=CC(=O)N1CCC(n2nnc3c(O[C@@H](C)[C@@H]4CCCN4C)nc4c(F)c(-c5cccc6c5c(CC#N)cn6C)c(C)cc4c32)CC1 (single isomer, unassigned) [Example 32b] | †† (WBS >70% but ≤90%) | ≤ 50 nM | ≤ 50 nM | ≤ 50 nM |  | 
2 | C=C(F)C(=O)N1CC[C@H](n2nnc3c(N4CC(C)(N(C)CC)C4)nc4c(F)c(-c5c(C)c(F)cc6[nH]ncc56)c(C)cc4c32)C[C@H]1CC#N (single isomer, unassigned) [Example 29] | ††† (WBS >90%) | ≤ 50 nM | 100 to 1000 nM | ≤ 50 nM |  | 
3 | COc1c(C)cccc1-c1c(C(F)(F)F)cc2c(nc(N3CC(C)(N(C)C)C3)c3nnn([C@H]4CCN(C(=O)/C=C/CF)[C@H](CC#N)C4)c32)c1F (single isomer, unassigned) [Example 2a] | †† (WBS >70% but ≤90%) | ≤ 50 nM | ≤ 50 nM | ≤ 50 nM |  | 
4 | COc1c(Cl)cccc1-c1c(C(F)(F)F)cc2c(nc(N3CC(C)(N(C)C)C3)c3nnn([C@H]4CCN(C(=O)/C=C/CF)[C@H](CC#N)C4)c32)c1F (single isomer, unassigned) [Example 3a] | †† (WBS >70% but ≤90%) | ≤ 50 nM | 100 to 1000 nM | ≤ 50 nM |  | 
5 | CN(C)C1(C)CN(c2nc3c(Cl)c(-c4ccc(F)c5cccnc45)c(Cl)cc3c3c2nnn3[C@H]2CCN(C(=O)/C=C/CF)[C@H](CC#N)C2)C1 (single isomer, unassigned) [Example 19a] | †† (WBS >70% but ≤90%) | ≤ 50 nM | ≤ 50 nM | ≤ 50 nM |  | 
6 | COC/C=C/C(=O)N1CC[C@H](n2nnc3c(O[C@@H](C)[C@@H]4CCCN4C)nc4c(F)c(-c5ccc(F)cc5)c(C)cc4c32)C[C@H]1CC#N [Example 10, 2-((2S,4S)-4-(6-fluoro-7-(4-fluorophenyl)-8-methyl-4-((S)-1-((S)-1-methylpyrrolidin-2-yl)ethoxy)-1H-[1,2,3]triazolo[4,5-c]quinolin-1-yl)-1-((E)-4-methoxybut-2-enoyl)piperidin-2-yl)acetonitrile] | ††† (WBS >90%) | ≤ 50 nM | ≤ 50 nM | ≤ 50 nM |  | 
7 | C=C(F)C(=O)N1CC[C@H](n2nnc3c(N4CC(N(C)CC)C4)nc4c(F)c(-c5c(C)c(C)cc6[nH]ncc56)c(C)cc4c32)C[C@H]1CC#N (single isomer, unassigned) [Example 15a] | ††† (WBS >90%) | ≤ 50 nM | 50 to 100 nM | ≤ 50 nM |  | 
8 | Cc1ccc(-c2c(C)cc3c(nc(O[C@@H](C)[C@@H]4CCCN4C)c4nnn([C@H]5CCN(C(=O)/C=C/CF)[C@H](CC#N)C5)c43)c2F)cn1 [Example 8, 2-((2S,4S)-4-(6-fluoro-8-methyl-7-(6-methylpyridin-3-yl)-4-((S)-1-((S)-1-methylpyrrolidin-2-yl)ethoxy)-1H-[1,2,3]triazolo[4,5-c]quinolin-1-yl)-1-((E)-4-fluorobut-2-enoyl)piperidin-2-yl)acetonitrile] | †† (WBS >70% but ≤90%) | ≤ 50 nM | ≤ 50 nM | ≤ 50 nM |  | 
9 | C=CC(=O)N1CC[C@H](n2nnc3c(O[C@@H](C)[C@@H]4CCCN4C)nc4c(F)c(-c5cccc6c5c(CC#N)cn6C)c(C)cc4c32)C[C@H]1C (single isomer, unassigned) [Example 31b] | †† (WBS >70% but ≤90%) | ≤ 50 nM | 50 to 100 nM | ≤ 50 nM |  | 
10 | COC/C=C/C(=O)N1CC[C@H](n2nnc3c(O[C@@H](C)[C@@H]4CCCN4C)nc4c(F)c(-c5cnc(C)c6ccccc56)c(C)cc4c32)C[C@H]1CC#N (single isomer, unassigned) [Example 26b] | †† (WBS >70% but ≤90%) |  |  | ≤ 50 nM | ≤ 50 nM | 50 to 100 nM
11 | COC/C=C/C(=O)N1CC[C@H](n2nnc3c(O[C@@H](C)[C@@H]4CCCN4C)nc4c(F)c(-c5c(F)cccc5OC)c(C)cc4c32)C[C@H]1CC#N (single isomer, unassigned) [Example 34b] | ††† (WBS >90%) |  | ≤ 50 nM | ≤ 50 nM |  | 
